PMC8333425, “Discovery of a dual Ras and ARF6 inhibitor from a GPCR endocytosis screen” (Nature Communications, 2021)

Key:
Assay in all cases: KINOMEscan kinase binding assay
[1] = target: T1, 384 kinases from the human genome (Homo sapiens, UniProt Q15569); settings: kinase TESK1 (Entrez TESK1)
T1 construct: purchased Eurofin/DiscoverX
Method in brief: (§1)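 A panel of 384 human kinases was profiled by KINOMEscan binding in the presence of 10 µM compound. Kinase–ligand binding was given as percent of DMSO control, averaged from duplicates in a single run, with an S(10) selectivity score.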

[2] = target: T2, 384 kinases from the human genome (Homo sapiens, UniProt Q9NYL2); settings: kinase ZAK (Entrez ZAK)
T2 construct: purchased Eurofin/DiscoverX
Method in brief: as §1

[3] = target: T3, 384 kinases from the human genome (Homo sapiens, UniProt Q8NI60); settings: kinase ADCK3 (Entrez CABC1)
T3 construct: purchased Eurofin/DiscoverX
Method in brief: as §1

[4] = target: T4, 384 kinases from the human genome (Homo sapiens, UniProt Q9BZL6); settings: kinase PRKD2 (Entrez PRKD2)
T4 construct: purchased Eurofin/DiscoverX
Method in brief: as §1

[5] = target: T5, 384 kinases from the human genome (Homo sapiens, UniProt P08922); settings: kinase ROS1 (Entrez ROS1)
T5 construct: purchased Eurofin/DiscoverX
Method in brief: as §1

[6] = target: T6, 384 kinases from the human genome (Homo sapiens, UniProt Q9UPZ9); settings: kinase ICK (Entrez ICK)
T6 construct: purchased Eurofin/DiscoverX
Method in brief: as §1

[7] = target: T7, 384 kinases from the human genome (Homo sapiens, UniProt O75116); settings: kinase ROCK2 (Entrez ROCK2)
T7 construct: purchased Eurofin/DiscoverX
Method in brief: as §1

[8] = target: T8, 384 kinases from the human genome (Homo sapiens, UniProt Q9UL54); settings: kinase TAOK2 (Entrez TAOK2)
T8 construct: purchased Eurofin/DiscoverX
Method in brief: as §1

[9] = target: T9, 384 kinases from the human genome (Homo sapiens, UniProt P35916); settings: kinase FLT4 (Entrez FLT4)
T9 construct: purchased Eurofin/DiscoverX
Method in brief: as §1

[10] = target: T10, 384 kinases from the human genome (Homo sapiens, UniProt Q8IVH8); settings: kinase MAP4K3 (Entrez MAP4K3)
T10 construct: purchased Eurofin/DiscoverX
Method in brief: as §1

[11] = target: T11, 384 kinases from the human genome (Homo sapiens, UniProt Q00526); settings: kinase CDK3 (Entrez CDK3)
T11 construct: purchased Eurofin/DiscoverX
Method in brief: as §1

[12] = target: T12, 384 kinases from the human genome (Homo sapiens, UniProt P19784); settings: kinase CSNK2A2 (Entrez CSNK2A2)
T12 construct: purchased Eurofin/DiscoverX
Method in brief: as §1

[13] = target: T13, 384 kinases from the human genome (Homo sapiens, UniProt P42684); settings: kinase ABL2 (Entrez ABL2)
T13 construct: purchased Eurofin/DiscoverX
Method in brief: as §1

[14] = target: T14, 384 kinases from the human genome (Homo sapiens, UniProt Q6P3R8); settings: kinase NEK5 (Entrez NEK5)
T14 construct: purchased Eurofin/DiscoverX
Method in brief: as §1

[15] = target: T15, 384 kinases from the human genome (Homo sapiens, UniProt Q96D53); settings: kinase ADCK4 (Entrez ADCK4)
T15 construct: purchased Eurofin/DiscoverX
Method in brief: as §1

[16] = target: T16, 384 kinases from the human genome (Homo sapiens, UniProt Q9Y616); settings: kinase IRAK3 (Entrez IRAK3)
T16 construct: purchased Eurofin/DiscoverX
Method in brief: as §1

[17] = target: T17, 384 kinases from the human genome (Homo sapiens, UniProt Q8TF76); settings: kinase HASPIN (Entrez GSG2)
T17 construct: purchased Eurofin/DiscoverX
Method in brief: as §1

[18] = target: T18, 384 kinases from the human genome (Homo sapiens, UniProt O00506); settings: kinase YSK1 (Entrez STK25)
T18 construct: purchased Eurofin/DiscoverX
Method in brief: as §1

[19] = target: T19, 384 kinases from the human genome (Homo sapiens, UniProt Q86UX6); settings: kinase YANK3 (Entrez STK32C)
T19 construct: purchased Eurofin/DiscoverX
Method in brief: as §1

[20] = target: T20, 384 kinases from the human genome (Homo sapiens, UniProt O94768); settings: kinase DRAK2 (Entrez STK17B)
T20 construct: purchased Eurofin/DiscoverX
Method in brief: as §1

[21] = target: T21, 384 kinases from the human genome (Homo sapiens, UniProt Q96PY6); settings: kinase NEK1 (Entrez NEK1)
T21 construct: purchased Eurofin/DiscoverX
Method in brief: as §1

[22] = target: T22, 384 kinases from the human genome (Homo sapiens, UniProt Q2M2I8)
T22 construct: purchased Eurofin/DiscoverX
Method in brief: as §1

[23] = target: T23, 384 kinases from the human genome (Homo sapiens, UniProt P49841); settings: kinase GSK3B (Entrez GSK3B)
T23 construct: purchased Eurofin/DiscoverX
Method in brief: as §1

[24] = target: T24, 384 kinases from the human genome (Homo sapiens, UniProt Q8NE63); settings: kinase HIPK4 (Entrez HIPK4)
T24 construct: purchased Eurofin/DiscoverX
Method in brief: as §1

[25] = target: T25, 384 kinases from the human genome (Homo sapiens, UniProt O96013); settings: kinase PAK4 (Entrez PAK4)
T25 construct: purchased Eurofin/DiscoverX
Method in brief: as §1

[26] = target: T26, 384 kinases from the human genome (Homo sapiens, UniProt P31749); settings: kinase AKT1 (Entrez AKT1)
T26 construct: purchased Eurofin/DiscoverX
Method in brief: as §1

T22 sequence (Q2M2I8 whole entry): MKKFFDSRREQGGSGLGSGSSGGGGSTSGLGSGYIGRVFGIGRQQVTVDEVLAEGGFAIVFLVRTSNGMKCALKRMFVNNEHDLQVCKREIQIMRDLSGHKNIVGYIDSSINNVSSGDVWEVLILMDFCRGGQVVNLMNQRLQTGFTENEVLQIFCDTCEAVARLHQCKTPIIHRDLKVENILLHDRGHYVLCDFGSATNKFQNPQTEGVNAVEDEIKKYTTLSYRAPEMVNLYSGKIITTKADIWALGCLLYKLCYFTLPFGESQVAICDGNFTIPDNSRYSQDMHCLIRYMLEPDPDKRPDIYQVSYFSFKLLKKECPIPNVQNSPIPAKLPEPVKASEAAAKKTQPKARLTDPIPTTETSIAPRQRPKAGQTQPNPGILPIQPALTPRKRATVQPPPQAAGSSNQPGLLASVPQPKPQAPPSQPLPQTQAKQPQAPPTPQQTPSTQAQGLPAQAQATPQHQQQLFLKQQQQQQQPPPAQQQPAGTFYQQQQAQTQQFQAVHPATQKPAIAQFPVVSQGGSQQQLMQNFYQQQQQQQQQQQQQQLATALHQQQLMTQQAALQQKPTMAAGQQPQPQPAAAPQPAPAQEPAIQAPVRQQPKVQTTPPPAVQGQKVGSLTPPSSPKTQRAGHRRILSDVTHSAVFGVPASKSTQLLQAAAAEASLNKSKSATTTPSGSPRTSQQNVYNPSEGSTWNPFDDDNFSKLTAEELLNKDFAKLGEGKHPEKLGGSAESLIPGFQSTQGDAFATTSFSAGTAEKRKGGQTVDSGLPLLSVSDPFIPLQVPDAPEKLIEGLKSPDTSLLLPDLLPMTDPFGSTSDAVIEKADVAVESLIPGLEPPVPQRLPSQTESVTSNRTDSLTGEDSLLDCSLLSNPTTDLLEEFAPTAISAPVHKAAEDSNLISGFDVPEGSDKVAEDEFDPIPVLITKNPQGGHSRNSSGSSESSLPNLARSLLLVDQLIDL
T18 sequence (O00506 whole entry): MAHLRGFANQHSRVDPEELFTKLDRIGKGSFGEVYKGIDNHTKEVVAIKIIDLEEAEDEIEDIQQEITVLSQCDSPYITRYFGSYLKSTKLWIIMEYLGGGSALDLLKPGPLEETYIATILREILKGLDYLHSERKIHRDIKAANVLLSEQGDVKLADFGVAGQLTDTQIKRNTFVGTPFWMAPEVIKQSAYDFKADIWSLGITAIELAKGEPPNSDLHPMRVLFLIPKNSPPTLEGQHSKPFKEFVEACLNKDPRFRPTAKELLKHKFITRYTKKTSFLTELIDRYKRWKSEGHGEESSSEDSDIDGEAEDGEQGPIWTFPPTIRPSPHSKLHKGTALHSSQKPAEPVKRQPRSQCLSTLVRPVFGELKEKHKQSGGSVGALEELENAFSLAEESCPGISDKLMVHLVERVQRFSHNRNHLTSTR
T5 sequence (P08922 28-2347): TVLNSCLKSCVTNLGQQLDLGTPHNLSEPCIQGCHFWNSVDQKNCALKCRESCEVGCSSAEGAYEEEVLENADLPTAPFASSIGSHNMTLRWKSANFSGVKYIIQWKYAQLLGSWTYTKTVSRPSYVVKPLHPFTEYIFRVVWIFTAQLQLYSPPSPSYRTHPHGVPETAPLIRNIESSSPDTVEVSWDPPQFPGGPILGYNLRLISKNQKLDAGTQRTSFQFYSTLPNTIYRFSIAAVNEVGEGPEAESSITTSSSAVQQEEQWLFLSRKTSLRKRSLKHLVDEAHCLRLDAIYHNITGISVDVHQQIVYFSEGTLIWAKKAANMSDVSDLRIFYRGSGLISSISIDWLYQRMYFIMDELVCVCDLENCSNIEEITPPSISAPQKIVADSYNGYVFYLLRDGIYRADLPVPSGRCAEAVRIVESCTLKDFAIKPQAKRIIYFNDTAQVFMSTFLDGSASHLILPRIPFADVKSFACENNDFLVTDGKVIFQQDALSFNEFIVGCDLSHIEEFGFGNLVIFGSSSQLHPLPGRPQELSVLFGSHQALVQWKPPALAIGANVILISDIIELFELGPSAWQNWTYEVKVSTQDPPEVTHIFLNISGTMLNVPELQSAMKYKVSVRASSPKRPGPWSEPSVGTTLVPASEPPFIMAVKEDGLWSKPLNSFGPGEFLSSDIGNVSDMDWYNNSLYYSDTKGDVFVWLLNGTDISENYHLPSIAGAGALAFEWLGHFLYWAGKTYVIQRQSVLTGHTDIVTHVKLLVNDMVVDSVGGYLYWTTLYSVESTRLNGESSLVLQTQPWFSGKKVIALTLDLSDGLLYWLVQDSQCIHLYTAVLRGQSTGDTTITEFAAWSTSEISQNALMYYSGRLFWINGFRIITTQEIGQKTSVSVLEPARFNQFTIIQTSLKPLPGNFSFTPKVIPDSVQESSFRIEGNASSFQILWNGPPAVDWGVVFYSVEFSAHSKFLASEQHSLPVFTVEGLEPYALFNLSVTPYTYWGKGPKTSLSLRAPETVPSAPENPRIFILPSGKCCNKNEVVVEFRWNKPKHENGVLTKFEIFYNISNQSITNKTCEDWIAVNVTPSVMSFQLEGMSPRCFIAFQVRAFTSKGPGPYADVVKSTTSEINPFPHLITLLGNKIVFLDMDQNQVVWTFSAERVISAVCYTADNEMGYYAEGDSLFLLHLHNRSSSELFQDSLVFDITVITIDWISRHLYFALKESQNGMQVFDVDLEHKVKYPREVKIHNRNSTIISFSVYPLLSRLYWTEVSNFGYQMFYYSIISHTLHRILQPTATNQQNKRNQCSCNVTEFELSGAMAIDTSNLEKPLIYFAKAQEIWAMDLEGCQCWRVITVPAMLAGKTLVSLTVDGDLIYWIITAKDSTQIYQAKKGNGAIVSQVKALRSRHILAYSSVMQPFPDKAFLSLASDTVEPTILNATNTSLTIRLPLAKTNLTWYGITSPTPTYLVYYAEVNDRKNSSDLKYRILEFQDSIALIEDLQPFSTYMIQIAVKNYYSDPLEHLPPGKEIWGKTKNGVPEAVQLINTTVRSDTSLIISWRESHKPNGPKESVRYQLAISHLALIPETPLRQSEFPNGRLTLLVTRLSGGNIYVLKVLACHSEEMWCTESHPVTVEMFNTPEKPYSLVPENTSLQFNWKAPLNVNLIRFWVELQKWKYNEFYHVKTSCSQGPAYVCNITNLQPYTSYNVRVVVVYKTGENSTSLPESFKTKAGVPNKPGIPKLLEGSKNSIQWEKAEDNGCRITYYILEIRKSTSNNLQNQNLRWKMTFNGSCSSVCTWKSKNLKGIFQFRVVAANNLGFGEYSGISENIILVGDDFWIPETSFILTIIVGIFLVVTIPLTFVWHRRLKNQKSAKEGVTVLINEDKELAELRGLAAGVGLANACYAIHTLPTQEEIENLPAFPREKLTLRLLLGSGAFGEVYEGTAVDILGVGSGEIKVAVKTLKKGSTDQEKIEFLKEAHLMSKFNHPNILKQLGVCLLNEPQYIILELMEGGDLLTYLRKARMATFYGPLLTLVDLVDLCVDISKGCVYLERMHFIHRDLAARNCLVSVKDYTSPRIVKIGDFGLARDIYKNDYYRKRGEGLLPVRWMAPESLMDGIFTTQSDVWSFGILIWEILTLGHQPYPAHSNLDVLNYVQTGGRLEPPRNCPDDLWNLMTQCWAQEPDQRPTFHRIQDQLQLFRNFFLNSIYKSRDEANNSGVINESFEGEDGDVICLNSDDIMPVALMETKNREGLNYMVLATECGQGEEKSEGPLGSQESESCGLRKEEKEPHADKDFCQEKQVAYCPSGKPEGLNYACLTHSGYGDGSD
T8 sequence (Q9UL54 whole entry): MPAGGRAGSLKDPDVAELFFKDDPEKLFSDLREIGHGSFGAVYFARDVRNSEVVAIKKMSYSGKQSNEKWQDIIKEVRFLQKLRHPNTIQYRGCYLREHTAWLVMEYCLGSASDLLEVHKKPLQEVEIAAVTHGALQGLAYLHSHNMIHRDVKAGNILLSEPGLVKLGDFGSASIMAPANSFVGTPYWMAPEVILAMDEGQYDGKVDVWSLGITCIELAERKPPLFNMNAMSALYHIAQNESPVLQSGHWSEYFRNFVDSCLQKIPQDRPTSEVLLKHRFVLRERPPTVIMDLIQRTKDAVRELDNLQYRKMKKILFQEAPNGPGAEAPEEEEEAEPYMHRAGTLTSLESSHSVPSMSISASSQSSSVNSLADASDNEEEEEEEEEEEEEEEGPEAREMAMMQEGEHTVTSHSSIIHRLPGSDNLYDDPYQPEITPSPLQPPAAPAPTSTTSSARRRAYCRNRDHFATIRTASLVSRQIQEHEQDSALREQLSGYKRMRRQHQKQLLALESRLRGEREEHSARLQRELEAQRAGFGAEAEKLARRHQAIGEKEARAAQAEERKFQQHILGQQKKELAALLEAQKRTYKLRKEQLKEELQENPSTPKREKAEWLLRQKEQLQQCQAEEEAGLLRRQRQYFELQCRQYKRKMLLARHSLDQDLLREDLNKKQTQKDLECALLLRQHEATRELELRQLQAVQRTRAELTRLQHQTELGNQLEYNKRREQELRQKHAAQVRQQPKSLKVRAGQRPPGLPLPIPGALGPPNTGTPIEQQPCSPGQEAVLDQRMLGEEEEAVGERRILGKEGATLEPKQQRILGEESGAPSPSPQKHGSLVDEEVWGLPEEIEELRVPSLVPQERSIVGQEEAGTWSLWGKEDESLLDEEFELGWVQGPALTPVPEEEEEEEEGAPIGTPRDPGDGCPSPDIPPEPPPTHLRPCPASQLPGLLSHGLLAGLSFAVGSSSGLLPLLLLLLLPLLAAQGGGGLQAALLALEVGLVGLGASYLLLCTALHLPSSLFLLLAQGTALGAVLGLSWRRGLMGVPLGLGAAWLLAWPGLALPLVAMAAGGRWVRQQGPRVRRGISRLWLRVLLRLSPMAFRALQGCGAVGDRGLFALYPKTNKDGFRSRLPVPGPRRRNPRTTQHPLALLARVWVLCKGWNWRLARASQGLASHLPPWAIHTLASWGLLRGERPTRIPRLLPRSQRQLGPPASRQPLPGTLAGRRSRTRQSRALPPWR

CC(C)C(=O)N1CCN(c2ccc(NC(=O)c3cc4ccccc4o3)cc2Cl)CC1 [Compound 21]
Percent Control [1]: 82%
Percent Control [2]: 72%
Percent Control [3]: 64%
Percent Control [4]: 100%
Percent Control [5]: 94%
Percent Control [6]: 81%
Percent Control [7]: 80%
Percent Control [8]: 93%
Percent Control [9]: 89%
Percent Control [10]: 78%
Percent Control [11]: 99%
Percent Control [12]: 92%
Percent Control [13]: 91%
Percent Control [14]: 74%
Percent Control [15]: 77%
Percent Control [16]: 67%
Percent Control [17]: 98%
Percent Control [18]: 100%
Percent Control [19]: 100%
Percent Control [20]: 94%
Percent Control [21]: 77%
binding to AAK1 ([22]; 10 µM of 21): failed to bind
Percent Control ([22]; kinase AAK1 (Entrez AAK1)): 100%
Percent Control [23]: 99%
Percent Control [24]: 100%
Percent Control [25]: 100%
Percent Control [26]: 97%
